Measurements as given in article PMC6037002, “Drug targeting to decrease cardiotoxicity – determination of the cytotoxic effect of GnRH-based conjugates containing doxorubicin, daunorubicin and methotrexate on human cardiomyocytes and endothelial cells” (Beilstein Journal of Organic Chemistry, 2018).
Read-outs that look alike come from different tables or passages of the source.

Tests used:
[1] = system: primary human cardiac myocytes (HCM); details: for delta slope (DS), short-term / delta slope (DS), long-term: HCM, three parallels; for delta slope (DS), short-term: 0–2 h; for delta slope (DS), long-term: 0–72 h; for Cardiotoxicity, HCM: grade +++/++/+/0, key not given, summary of impedimetric cytotoxicity; for cytotoxic effect on HCM, result in words: long-term (0–72 h), 10^−8–10^−6 mol/L (free drugs 10^−12–10^−6 mol/L), impedimetry, one-way ANOVA
Source text: (§1) The main objective of the study reported here was to evaluate the in vitro cardiotoxic effects (as undesired side effects) of […] GnRH-III-based conjugates containing doxorubicin, daunorubicin and methotrexate on two essential target cells of cardiovascular diseases: vascular endothelial cells and cardiomyocytes. The rate of cytotoxicity (antitumor effect) vs cardiotoxicity (toxic effects on cardiomyocytes and vascular endothelium) is an important factor for efficient drug development for targeted tumor therapy with minimized side effects. The technique used in this work – impedimetry – is a dedicated one for real-time monitoring of cells to distinguish short-term (0–2 hours) and long-term (0–72 hours) effects elicited by the drug or carrier–drug conjugates. The basic theory of impedimetry is that proliferation/viability of cells is well detectable by monitoring of the electric impedance (Z) in an AC environment, due to the electric insulator character of intact surface membranes composed of the phospholipid bilayer. […] While cell physiological responses of short-term exposures result in characteristic changes of cell morphology (e.g., spreading), long-term effects characteristically influence in particular the proliferation of cells, and therefore the cytotoxic effects. The presented dimensionless values of delta slope (DS) measure the difference between the slope of the curve corresponding to the treatment and that of the control curve in impedimetric recordings, the negative signs refer to the relative values to the identical control.
(§2) Experimental part – Cellular samples
(§3) In the present study, GnRH conjugates containing anti-tumour drugs (e.g., daunorubicin, doxorubicin) were investigated in order to evaluate whether the conjugates exert a decrease cardiotoxic effect compared to that of the free drugs. The cardiac myocytes and the vascular endothelium cells are the most frequently detected target cells of antitumor compounds and they are employed in our study. Human umbilical vein endothelial cells (HUVEC; Promocell, Biomedica, Wien, Austria) were cultured in Endothelial Cell Growth Medium with Endothelial Cell Growth Supplement Mix (Promocell, Biomedica, Wien, Austria) and 100 µg/mL penicillin/streptomycin. Primary human cardiac myocytes (HCM; Promocell, Biomedica, Wien, Austria) were cultured in Myocyte Growth Medium (Promocell, Biomedica, Wien, Austria).
(§4) Impedimetric measurements
(§5) The xCELLigence SP system was used for impedimetric measurements. The bottom of the wells of a 96-well E-plate is installed with a golden electrode array that constitutes the adhesion surface. Adhering cells – acting as insulators – change the electric impedance measured on the electrodes. The measured impedance change is in direct correlation with the number of adhering cells and the extent of adhesion. The results of impedance change are given in the form of Cell Index (CI) calculated by the xCELLigence system according to the […]
(§6) where Zt is the measured impedance in a time point, Zb is the background impedance and F is an inbuilt factor (F = 15 at 10 kHz) depending on the frequency of the alternating current. The measurements took place in an incubator holding a 37 °C temperature and 5% carbon-dioxide […]
(§7) The experiments started with a measurement of baseline impedance for 1 hour. After that, the cells (10^4 cells/well) were added to the wells and allowed to adhere to the electrodes. When the adhering cells reached a balanced state in the wells, signified by the impedance curves […]
(§8) free drugs at 10−12 – 10−6 M and the conjugates at 10−8 – 10−6 M final concentrations were […]
(§9) added to the wells. The changes in impedance were measured for at least 72 hours. For each measurement three parallels were measured.
(§10) The evaluation of responses followed the previously described strategy: acute effects of compounds were evaluated as a characteristic morphology of the curves in the 0–2 hours

[2] = system: human umbilical vein endothelial cells (HUVEC); assay: Impedimetric measurement (xCELLigence SP), delta slope, HUVEC; details: for delta slope (DS), short-term / delta slope (DS), long-term: HUVEC, three parallels; for delta slope (DS), short-term: 0–2 h; for delta slope (DS), long-term: 0–72 h; for Cardiotoxicity, HUVEC: grade +++/++/+/0, key not given, summary of impedimetric cytotoxicity; for cytotoxic effect on HUVEC, result in words: long-term (0–72 h), 10^−8–10^−6 mol/L, impedimetry, one-way ANOVA
Source text: as §1, §2, §3, §4, §5, §6, §7, §8, §9, §10

[3] = system: HT-29 human colon adenocarcinoma cells; details: MTT assay; cited from earlier work
Source text: (§11) Table 1 Comparative study of cytotoxic effects and cardiotoxicity elicited by GnRH-based antitumor compounds (1–15) and reference substances (AN-152, Dox, Dau, Mtx). IC50 values show antitumor cytotoxic characteristics of the conjugates in human breast cancer (MCF-7), human colorectal adenocarcinoma (HT-29) and human acute monocytic leukemia (MM6) derived cell lines as representative tumor cells.

[4] = system: human acute monocytic leukemia (MonoMac6) cells; details: cited from earlier work
Source text: as §11

[5] = system: MCF-7 human breast adenocarcinoma cells; details: MTT assay; cited from earlier work
Source text: as §11

## GnRH-III(Dox-O-glut) [conjugate 1]
[1]; Table S2b, 10^-6 mol/L
  delta slope (DS), short-term: 0.012
  delta slope (DS), long-term: −0.025
[1]; Table S2b, 10^-7 mol/L
  delta slope (DS), short-term: 0.002
[1]; Table S2b, 10^-8 mol/L
  delta slope (DS), short-term: 0.001
  delta slope (DS), long-term: −0.002
[2]; Table S2a, 10^-6 mol/L
  delta slope (DS), short-term: 0.038
[2]; Table S2a, 10^-7 mol/L
  delta slope (DS), short-term: 0.016
[2]; Table S2a, 10^-8 mol/L
  delta slope (DS), short-term: -0.011
  delta slope (DS), long-term: -0.003
[2]; Table S2a, 10^-6 mol/L, listed as 1
  delta slope (DS), long-term: -0.054
[2]; Table S2a, 10^-6 mol/L, listed as GnRH-III(Dox-O-glut)
  delta slope (DS), long-term: −0.054
[2]; Table S2a, 10^-7 mol/L, listed as 1
  delta slope (DS), long-term: -0.028
[2]; Table S2a, 10^-7 mol/L, listed as GnRH-III(Dox-O-glut)
  delta slope (DS), long-term: −0.028
[3]
  IC50: 2.4 ± 0.2 µM
[4]
  IC50: 0.039 ± 0.01 µM
[5]
  IC50: 0.1 ± 0.1 µM

## GnRH-III(Dau=Aoa-K(Dau=Aoa)) [conjugate 12]
[1]; Table S3b, 10^-6 mol/L
  delta slope (DS), short-term: -0.001
  delta slope (DS), long-term: -0.002
[1]; Table S3b, 10^-7 mol/L
  delta slope (DS), short-term: -0.001
  delta slope (DS), long-term: -0.001
[1]; Table S3b, 10^-8 mol/L
  delta slope (DS), short-term: -0.001
  delta slope (DS), long-term: -0.001
[1]
  Cardiotoxicity, HCM: 0
  cytotoxic effect on HCM, result in words: completely lost their cytotoxic effect
[2]; Table S3a, 10^-6 mol/L
  delta slope (DS), short-term: -0.003
  delta slope (DS), long-term: -0.001
[2]; Table S3a, 10^-7 mol/L
  delta slope (DS), short-term: 0.010
  delta slope (DS), long-term: -0.001
[2]; Table S3a, 10^-8 mol/L
  delta slope (DS), short-term: 0.009
  delta slope (DS), long-term: -0.001
[2]
  Cardiotoxicity, HUVEC: 0
  cytotoxic effect on HUVEC, result in words: completely lost the cytotoxic effect
[3]
  IC50: 5.6 ± 2 µM
[4]
  IC50: > 1 µM
[5]
  IC50: 3 ± 0.4 µM

## GnRH-III(Dau=Aoa) [conjugate 4]
[1]; Table S3b, 10^-6 mol/L
  delta slope (DS), short-term: 0.001
  delta slope (DS), long-term: -0.001
[1]; Table S3b, 10^-7 mol/L
  delta slope (DS), short-term: -0.001
  delta slope (DS), long-term: -0.001
[1]; Table S3b, 10^-8 mol/L
  delta slope (DS), short-term: -0.002
  delta slope (DS), long-term: -0.001
[1]
  Cardiotoxicity, HCM: 0
  cytotoxic effect on HCM, result in words: completely lost their cytotoxic effect
[2]; Table S3a, 10^-6 mol/L
  delta slope (DS), short-term: -0.003
  delta slope (DS), long-term: -0.001
[2]; Table S3a, 10^-7 mol/L
  delta slope (DS), short-term: -0.003
  delta slope (DS), long-term: -0.001
[2]; Table S3a, 10^-8 mol/L
  delta slope (DS), short-term: 0.001
  delta slope (DS), long-term: -0.001
[2]
  Cardiotoxicity, HUVEC: 0
  cytotoxic effect on HUVEC, result in words: completely lost the cytotoxic effect
[3]
  IC50: 27.8 ± 4.2 µM
[4]
  IC50: > 1 µM
[5]
  IC50: 6.5 ± 1.8 µM

## GnRH-III(Mtx-K(Dau=Aoa)) [conjugate 13]
[1]; Table S5b, 10^-6 mol/L
  delta slope (DS), short-term: -0.003
  delta slope (DS), long-term: -0.001
[1]; Table S5b, 10^-7 mol/L
  delta slope (DS), short-term: 0.002
  delta slope (DS), long-term: -0.001
[1]; Table S5b, 10^-8 mol/L
  delta slope (DS), short-term: -0.002
  delta slope (DS), long-term: -0.001
[1]
  Cardiotoxicity, HCM: 0
  cytotoxic effect on HCM, result in words: none of the two investigated mixed drug–GnRH-III conjugates (13 and 15) exerted any significant cytotoxic effect
[2]; Table S5a, 10^-6 mol/L
  delta slope (DS), short-term: 0.013
  delta slope (DS), long-term: 0.001
[2]; Table S5a, 10^-7 mol/L
  delta slope (DS), short-term: 0.002
  delta slope (DS), long-term: 0.001
[2]; Table S5a, 10^-8 mol/L
  delta slope (DS), short-term: 0.001
  delta slope (DS), long-term: -0.001
[2]
  Cardiotoxicity, HUVEC: 0
  cytotoxic effect on HUVEC, result in words: no significant effect was detected
[3]
  IC50: 5.6 ± 3 µM
[4]
  IC50: 1.41 ± 0.39 µM
[5]
  IC50: 5.4 ± 0.7 µM

## GnRH-III(Dox=Aoa-GFLG) [conjugate 3]
[1]; Table S2b, 10^-6 mol/L
  delta slope (DS), short-term: -0.002
  delta slope (DS), long-term: −0.007
[1]; Table S2b, 10^-7 mol/L
  delta slope (DS), short-term: 0.001
  delta slope (DS), long-term: -0.001
[1]; Table S2b, 10^-8 mol/L
  delta slope (DS), short-term: 0.004
  delta slope (DS), long-term: 0.002
[2]; Table S2a, 10^-6 mol/L
  delta slope (DS), short-term: -0.006
[2]; Table S2a, 10^-7 mol/L
  delta slope (DS), short-term: -0.003
  delta slope (DS), long-term: -0.001
[2]; Table S2a, 10^-8 mol/L
  delta slope (DS), short-term: -0.002
  delta slope (DS), long-term: 0.0004
[2]; Table S2a, 10^-6 mol/L, listed as 3
  delta slope (DS), long-term: -0.009
[2]; Table S2a, 10^-6 mol/L, listed as GnRH-III(Dox=Aoa-GFLG)
  delta slope (DS), long-term: −0.009
[3]
  IC50: 46.1 ± 6.1 µM
[4]
  IC50: 0.43 ± 0.04 µM
[5]
  IC50: 5.4 ± 1.9 µM
